Measurements: ChEMBL document CHEMBL1201862, “PubChem BioAssay data set” (2004)
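Where inhibition never reached the appropriate level, the endpoint shown equals the highest concentration tested. Otherwise, values were interpolated linearly from a five-concentration, 48-hour dose response in 96-well plates. At the GI50, growth is halved.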 Active and inactive are the calls of the source. No stated cut-off is given here; in the data, active = GI50 up to about 1.1 µM and inactive = higher.

Tests used:
Test in all cases: NCI anticancer screen, dose series, 48 h
ACHN = system: ACHN
CAKI-1 = system: CAKI-1
COLO 205 = system: COLO 205
HCT-15 = system: HCT-15
HL-60 = system: HL-60
HT-29 = system: HT-29
K562 = system: K562
MOLT-4 = system: MOLT-4
NCI-H23 = system: NCI-H23
NCI-H522 = system: NCI-H522
OVCAR-4 = system: OVCAR-4
OVCAR-5 = system: OVCAR-5
SF-268 = system: SF-268
SF-539 = system: SF-539
SN12C = system: SN12C
TK-10 = system: TK-10
UACC-257 = system: UACC-257
UACC-62 = system: UACC-62

Row | Compound | GI50 (ACHN) | GI50 (CAKI-1) | GI50 (COLO 205) | GI50 (HCT-15) | GI50 (HL-60) | GI50 (HT-29) | GI50 (K562) | GI50 (MOLT-4) | GI50 (NCI-H23) | GI50 (NCI-H522) | GI50 (OVCAR-4) | GI50 (OVCAR-5) | GI50 (SF-268) | GI50 (SF-539) | GI50 (SN12C) | GI50 (TK-10) | GI50 (UACC-257) | GI50 (UACC-62)
1 | COC(=O)C1=C(C(=O)OC)C2(CCCCCC2=O)OC1=O (stereo not given) | > 100 µM (inactive) | > 100 µM (inactive) | > 100 µM (inactive) | > 100 µM | > 100 µM (inactive) | > 100 µM (inactive) | > 100 µM (inactive) | > 100 µM (inactive) | > 100 µM (inactive) | > 100 µM (inactive) | > 100 µM (inactive) | > 100 µM (inactive) | > 100 µM (inactive) | > 100 µM (inactive) | > 100 µM (inactive) | > 100 µM (inactive) | > 100 µM (inactive) | > 100 µM (inactive)
2 | O=C1CCC(c2nc3ccccc3o2)C(=O)N1 (stereo not given) | > 100 µM (inactive) | > 100 µM (inactive) | > 100 µM (inactive) | > 100 µM | > 100 µM (inactive) | > 100 µM (inactive) | > 100 µM (inactive) | > 100 µM (inactive) | > 100 µM (inactive) | > 100 µM (inactive) | > 100 µM (inactive) | – | > 100 µM (inactive) | > 100 µM (inactive) | > 100 µM (inactive) | > 100 µM (inactive) | > 100 µM (inactive) | > 100 µM (inactive)
3 | CCOC(=O)C(Cc1ccccc1)NC(=O)c1nc[nH]c1/N=N/N(C)C (stereo not given) | > 100 µM (inactive) | > 100 µM (inactive) | > 100 µM (inactive) | > 100 µM | > 100 µM (inactive) | > 100 µM (inactive) | > 100 µM (inactive) | > 100 µM (inactive) | > 100 µM (inactive) | > 100 µM (inactive) | > 100 µM (inactive) | > 100 µM (inactive) | > 100 µM (inactive) | > 100 µM (inactive) | > 100 µM (inactive) | > 10 µM (inactive) | > 100 µM (inactive) | > 100 µM (inactive)
4 | N#CC1(N2CCCC2)CCC2(CC1)OCCO2 | > 100 µM (inactive) | > 100 µM (inactive) | > 10 µM (inactive) | > 100 µM | > 100 µM (inactive) | > 100 µM (inactive) | > 100 µM (inactive) | > 100 µM (inactive) | > 100 µM (inactive) | > 100 µM (inactive) | > 100 µM (inactive) | > 100 µM (inactive) | > 100 µM (inactive) | > 100 µM (inactive) | > 100 µM (inactive) | > 100 µM (inactive) | > 100 µM (inactive) | > 100 µM (inactive)
5 | CC1=Nn2c(nnc2-c2ccc(N)cc2)NC(C)(C)C1 | > 100 µM (inactive) | > 100 µM (inactive) | > 100 µM (inactive) | > 100 µM | > 100 µM (inactive) | > 100 µM (inactive) | > 100 µM (inactive) | > 100 µM (inactive) | > 100 µM (inactive) | > 100 µM (inactive) | > 100 µM (inactive) | > 100 µM (inactive) | > 100 µM (inactive) | > 100 µM (inactive) | – | > 100 µM (inactive) | > 100 µM (inactive) | > 100 µM (inactive)
6 | COc1ccc(C(=O)C=C2NCCN2)cc1 | > 100 µM (inactive) | > 100 µM (inactive) | > 100 µM (inactive) | – | > 100 µM (inactive) | > 100 µM (inactive) | > 100 µM (inactive) | > 100 µM (inactive) | > 100 µM (inactive) | > 100 µM (inactive) | > 100 µM (inactive) | > 100 µM (inactive) | > 100 µM (inactive) | > 100 µM (inactive) | > 100 µM (inactive) | > 100 µM (inactive) | > 100 µM (inactive) | > 100 µM (inactive)
